Calls of active or inactive are those of the source. The rule behind the calls is not given here.
How the values were obtained:
[1] = target: Amyloid-beta precursor protein (Homo sapiens) (UniProt P05067); test: Neuroprotective activity against amyloid beta (1 to 42)-induced toxicity in human SH-SY5Y cells at 2.5 uM preincubated for 3 hrs by MTT assay; type: functional, cell-based
[2] = target: Amyloid-beta precursor protein (Homo sapiens) (UniProt P05067); test: Neuroprotective activity against amyloid beta (1 to 42)-induced toxicity in Alzheimer's disease patient platelet-SH-SY5Y cell cybrid at 2.5 uM preincubated for 3 hrs by MTT assay; type: functional, cell-based
[3] = target: Amyloid-beta precursor protein (Homo sapiens) (UniProt P05067); test: Neuroprotective activity against amyloid beta (1 to 42)-induced toxicity in mild cognitive impairment patient platelet-SH-SY5Y cell cybrid at 2.5 uM preincubated for 3 hrs by MTT assay; type: functional, cell-based
[4] = test system: Radical scavenging activity; test: Antioxidant activity assessed as DPPH free radical scavenging activity at 1 mM after 30 mins by spectrophotometric analysis relative to control; type: functional
Acetylcholinesterase = Acetylcholinesterase (Electrophorus electricus, UniProt O42275)
Chain of Acetylcholinesterase (O42275 whole entry): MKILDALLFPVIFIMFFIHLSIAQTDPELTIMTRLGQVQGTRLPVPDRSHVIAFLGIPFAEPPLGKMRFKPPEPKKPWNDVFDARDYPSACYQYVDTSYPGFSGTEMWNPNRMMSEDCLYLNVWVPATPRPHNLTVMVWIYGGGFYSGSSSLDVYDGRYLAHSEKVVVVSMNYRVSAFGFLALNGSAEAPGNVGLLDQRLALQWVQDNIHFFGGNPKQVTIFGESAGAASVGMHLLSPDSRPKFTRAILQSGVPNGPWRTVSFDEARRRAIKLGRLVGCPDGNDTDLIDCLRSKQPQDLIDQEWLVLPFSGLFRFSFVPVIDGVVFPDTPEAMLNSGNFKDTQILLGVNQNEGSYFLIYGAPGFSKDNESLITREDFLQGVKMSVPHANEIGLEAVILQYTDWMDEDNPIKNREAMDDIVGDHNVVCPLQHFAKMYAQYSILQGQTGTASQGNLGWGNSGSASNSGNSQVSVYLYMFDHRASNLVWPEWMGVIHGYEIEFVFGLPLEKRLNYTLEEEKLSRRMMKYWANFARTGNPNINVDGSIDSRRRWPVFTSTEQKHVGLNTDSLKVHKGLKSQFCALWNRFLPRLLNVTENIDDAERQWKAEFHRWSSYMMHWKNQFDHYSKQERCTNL
Description: Inhibition of electric eel AChE using acetylcholine iodide as substrate preincubated for 15 mins prior to substrate addition by Ellman's method

[5] = test system: Radical scavenging activity
Description: Antioxidant activity assessed as DPPH free radical scavenging activity after 30 mins by spectrophotometric analysis

[6] = test system: Radical scavenging activity; test: Antioxidant activity assessed as DPPH free radical scavenging activity at 1.22 mM after 30 mins by spectrophotometric analysis relative to control; type: functional
[7] = target: Amyloid-beta precursor protein (Homo sapiens) (UniProt P05067); test: Neuroprotective activity against amyloid beta (1 to 42)-induced toxicity in normal cognition human platelet-SH-SY5Y cell cybrid at 2.5 uM preincubated for 3 hrs by MTT assay; type: functional, cell-based
[8] = test system: Radical scavenging activity; test: Antioxidant activity assessed as DPPH free radical scavenging activity at 1.32 mM after 30 mins by spectrophotometric analysis relative to control; type: functional

Chain of Amyloid-beta precursor protein (Homo sapiens) (P05067 whole entry): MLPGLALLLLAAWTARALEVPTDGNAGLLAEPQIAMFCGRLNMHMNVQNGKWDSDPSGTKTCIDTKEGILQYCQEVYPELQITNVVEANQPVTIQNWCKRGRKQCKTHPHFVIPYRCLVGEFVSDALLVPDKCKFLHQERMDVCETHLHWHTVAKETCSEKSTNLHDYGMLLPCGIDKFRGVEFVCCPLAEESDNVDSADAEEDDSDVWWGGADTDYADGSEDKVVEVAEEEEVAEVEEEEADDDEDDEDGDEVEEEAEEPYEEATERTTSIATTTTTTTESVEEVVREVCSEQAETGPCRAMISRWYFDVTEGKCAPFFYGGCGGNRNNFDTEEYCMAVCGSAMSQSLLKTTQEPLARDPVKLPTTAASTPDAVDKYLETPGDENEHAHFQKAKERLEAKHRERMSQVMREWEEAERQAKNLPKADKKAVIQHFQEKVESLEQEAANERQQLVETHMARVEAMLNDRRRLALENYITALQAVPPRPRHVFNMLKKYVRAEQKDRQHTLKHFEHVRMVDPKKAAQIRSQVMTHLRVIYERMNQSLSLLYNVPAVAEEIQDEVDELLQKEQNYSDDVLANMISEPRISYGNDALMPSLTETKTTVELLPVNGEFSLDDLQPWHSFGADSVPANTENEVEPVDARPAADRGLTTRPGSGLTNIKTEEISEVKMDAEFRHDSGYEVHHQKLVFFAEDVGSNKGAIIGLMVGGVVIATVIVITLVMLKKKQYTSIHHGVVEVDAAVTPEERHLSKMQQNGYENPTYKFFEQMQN

O=C(CCCCCNc1c2c(nc3ccccc13)CCCC2)NCCCCCc1nc2ccccc2s1
Activity [1]: Active
Activity [2]: Active
Activity [3]: Active
Activity [4]: 25%
IC50 (Acetylcholinesterase): 0.76 µM
EC50 [5]: > 1000 µM

O=C(CCCCCNc1c2c(nc3ccccc13)CCCC2)Nc1ccc(Cc2nc3ccccc3s2)cc1
Activity [4]: 25%
IC50 (Acetylcholinesterase): 0.57 µM
EC50 [5]: > 1000 µM

O=C(CCCCCNc1c2c(nc3ccccc13)CCCC2)NCc1ccc(-c2nc3ccccc3s2)cc1
Activity [4]: 25%
IC50 (Acetylcholinesterase): 1.84 µM
EC50 [5]: > 1000 µM

O=C(CCCCCNc1c2c(nc3ccccc13)CCCC2)NCCCc1nc2ccccc2s1
Activity [1]: Active
Activity [2]: Active
Activity [3]: Active
Activity [4]: 25%
Activity [6]: 25%
IC50 (Acetylcholinesterase): 0.96 µM

O=C(CCCCCNc1c2c(nc3ccccc13)CCCC2)Nc1ccc(-c2nc3ccccc3s2)cc1
Activity [7]: Active
Activity [4]: 25%
Activity [8]: 32%
IC50 (Acetylcholinesterase): 0.34 µM

— ChEMBL document CHEMBL2406942, “Design, synthesis and neuroprotective evaluation of novel tacrine-benzothiazole hybrids as multi-targeted compounds against Alzheimer's disease” (Bioorg Med Chem, 2013)
